Measurements taken from patent US10065943B2, “Pyrrolidine derivatives as angiotensin II type 2 antagonists” (NOVARTIS AG, priority 2015, dated 2018).

Target: T1, human AT2 receptor (Homo sapiens, UniProt P50052)
T1 construct: membranes prepared in house
T1 sequence (P50052 1-363): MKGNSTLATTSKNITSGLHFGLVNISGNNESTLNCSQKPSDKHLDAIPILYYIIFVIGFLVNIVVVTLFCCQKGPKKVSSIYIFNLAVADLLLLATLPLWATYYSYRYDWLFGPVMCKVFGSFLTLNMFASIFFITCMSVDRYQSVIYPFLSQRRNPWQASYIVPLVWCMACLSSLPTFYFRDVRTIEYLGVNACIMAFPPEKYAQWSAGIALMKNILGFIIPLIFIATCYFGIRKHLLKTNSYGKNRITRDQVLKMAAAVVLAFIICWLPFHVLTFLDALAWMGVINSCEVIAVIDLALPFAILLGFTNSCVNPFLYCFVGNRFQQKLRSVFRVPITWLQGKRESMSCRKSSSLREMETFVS
Assay: AT2 receptor binding ([125I]CGP 42112A displacement, CHO-K1 membranes)
Conditions: [125I]CGP 42112A 0.05 nM, membranes of CHO-K1 cells expressing human AT2 receptor; Ki from IC50 by Cheng-Prussoff equation; read-out: Ki
Source text: Reagents were purchased from Sigma-Aldrich, unless otherwise specified. Dialyzed fetal bovine serum (FBS) was from Life Technologies (cat. no. 10073772). Valiscreen® human angiotensin AT2 receptor cell line (cat. no. ES-070-C), [^125I]CGP 42112A (cat. no. NEX324025UC) and MicroScint™ 40 (cat. no. 6013641) were purchased from PerkinElmer. CGP 42112A (cat. no. 2569) and PD 123,319 ditrifluoroacetate (cat. no. 1361) were from Tocris Biosciences.
• 1. Growth medium • EX-CELL® CHO DHFR^− medium • 10% FBS, dialysed • 1 mM sodium pyruvate • 2 mM L-glutamine • 2. Harvesting buffer • PBS • 2 mM EDTA • 3. Suspension buffer • 50 mM Tris-HCl, pH 7.4 • 10 mM EDTA • 4. Resuspension buffer • 50 mM Tris-HCl, pH 7.4 • 0.1 mM EDTA • 0.1% sucrose • 5. Binding assay buffer • 50 mM Tris-HCl, pH 7.4 • 5 mM MgCl2 • 1 mM EDTA • 0.1% gelatin • 6. Wash buffer • 50 mM Tris-HCl, pH 7.4 Procedure for Membrane Preparation • Valiscreen® CHO-K1 cells stably expressing the human AT2 receptor were cultured in growth medium. • Cells were seeded into T-175 flasks and grown to 70-80% confluence. • Medium was removed from confluent flasks and cells were washed with warm PBS. • Cells were harvested by incubating with harvesting buffer for 10 min at 37° C., and then transferred to a centrifuge tube on ice. • Cells were centrifuged at 200 g for 5 min at 4° C. • Cell pellets were homogenised in ice-cold suspension buffer. • Homogenates were centrifuged at 40,000 g for 15 min at 4° C. • Pellets were resuspended in ice-cold resuspension buffer and centrifuged at 40,000 g for 15 min at 4° C. • Final pellets were homogenised in ice-cold resuspension buffer. • Protein concentrations were determined by BCA assay method with BSA as standard. Compound Preparation
Compounds were prepared from 10 mM stock solutions in 100% DMSO. Dilutions were made using electronic multichannel pipettes.
• Compounds dilutions were prepared in 100% DMSO at 100× final assay concentration. • Compounds were diluted in 100% DMSO to the appropriate maximal concentration. • 30 μL compound was added to row A. • 21.6 μL of 100% DMSO was added to rows B-H. • Transfer 10 μL from row A into row B (half log dilution). • Transfer 10 μL from row B into row C (half log dilution). • Transfer 10 μL from row C into row D (half log dilution). • Transfer 10 μL from row D into row E (half log dilution). • Transfer 10 μL from row E into row F (half log dilution). • Transfer 10 μL from row F into row G (half log dilution). • Transfer 10 μL from row G into row H (half log dilution). Working Plate Preparation (96-Well Plate) • Compounds were diluted 10-fold in assay buffer. • 10 μL compound solution from dose plate was transferred to corresponding well of working plate. • 90 μL assay buffer was added to the wells of working plate. • Working solutions contained 10% DMSO in assay buffer (1% DMSO final assay concentration). Controls • Total binding (high control) was determined in the absence of unlabelled ligand. A solution of 10% DMSO in assay buffer was prepared. • Non-specific binding (low control) was determined in the presence of a vast excess (10 μM) of PD 123,319. 1 mM stock solution of PD 123,319 in water was diluted 10-fold with 10% DMSO in assay buffer. Assay Plate Preparation (96-Well Plate)
15 μL compound solution was transferred to duplicate wells of assay plate. 5 compounds were tested per plate. 15 μL control solutions were transferred to columns 1 and 12 of assay plate.

Structure (SMILES)	Ki [nM]
O=C(NS(=O)(=O)C1CC1)[C@@H]1C[C@H](N2CCCCc3ccccc32)CN1C(=O)C(c1ccccc1)c1ccccc1 [Compound 43, (2S,4S)—N-(Cyclopropylsulfonyl)-1-(2,2-diphenylacetyl)-4-(2,3,4,5-tetrahydro-1H-benzo[b]azepin-1-yl)pyrrolidine-2-carboxamide]	8.6
O=C(O)[C@@H]1C[C@H](N2CCOCc3ccccc32)CN1C(=O)C(c1ccccc1)c1ccccc1 [Compound 10, (2S,4S)-4-(2,3-Dihydrobenzo[e][1,4]oxazepin-1(5H)-yl)-1-(2,2-diphenylacetyl)pyrrolidine-2-carboxylic acid]	148
C[C@@]1(C(=O)NS(=O)(=O)C2CC2)C[C@@H](N2CCCOc3cc(F)c(F)cc32)CN1C(=O)C(c1ccccc1)c1ccccc1 [Compound 42a, (2S,4R)—N-(cyclopropylsulfonyl)-4-(7,8-difluoro-3,4-dihydrobenzo[b][1,4]oxazepin-5(2H)-yl)-1-(2,2-diphenylacetyl)-2-methylpyrrolidine-2-carboxamide]	5
O=C(O)[C@@H]1C[C@@H](N2CCCOc3cc(F)c(F)cc32)CN1C(=O)C(c1ccccc1)c1ccccc1 [Compound 24, (2S,4R)-4-(7,8-Difluoro-3,4-dihydrobenzo[b][1,4]oxazepin-5(2H)-yl)-1-(2,2-diphenylacetyl)pyrrolidine-2-carboxylic acid]	1.4
C[C@@]1(C(=O)O)C[C@H](N2CCCCc3cc(F)c(F)cc32)CN1C(=O)C(c1ccccc1)c1ccccc1 [Compound 31, (2S,4S)-4-(7,8-Difluoro-2,3,4,5-tetrahydro-1H-benzo[b]azepin-1-yl)-1-(2,2-diphenylacetyl)-2-methylpyrrolidine-2-carboxylic acid]	11.8
O=C(O)[C@@H]1C[C@@H](N2CCCOc3ccccc32)CN1C(=O)C(c1ccccc1)c1ccccc1 [Compound 26, (2S,4R)-4-(3,4-Dihydrobenzo[b][1,4]oxazepin-5(2H)-yl)-1-(2,2-diphenylacetyl)pyrrolidine-2-carboxylic acid]	4.1
O=C(O)[C@@H]1C[C@H](N2Cc3ccccc3C2)CN1C(=O)C(c1ccccc1)c1ccccc1 [Compound 20, (2S,4S)-1-(2,2-Diphenylacetyl)-4-(isoindolin-2-yl)pyrrolidine-2-carboxylic acid]	359
O=C(O)[C@@H]1C[C@H](N2CCc3ccccc3CC2)CN1C(=O)C(c1ccccc1)c1ccccc1 [Compound 45, (2S,4S)-1-(2,2-Diphenylacetyl)-4-(1,2,4,5-tetrahydro-3H-benzo[d]azepin-3-yl)pyrrolidine-2-carboxylic acid]	28.2
O=C(C(c1ccccc1)c1ccccc1)N1C[C@@H](N2CCCCc3ccccc32)C[C@H]1c1nn[nH]n1 [Compound 35, 2,2-Diphenyl-1-((2S,4S)-4-(2,3,4,5-tetrahydro-1H-benzo[b]azepin-1-yl)-2-(2H-tetrazol-5-yl)pyrrolidin-1-yl)ethan-1-one]	36.2
O=C(NS(=O)(=O)C1CC1)[C@@H]1C[C@H](N2CCCOc3ccc(F)cc32)CN1C(=O)C(c1ccccc1)c1ccccc1 [Compound 37, (2S,4S)—N-(Cyclopropylsulfonyl)-1-(2,2-diphenylacetyl)-4-(7-fluoro-3,4-dihydrobenzo[b][1,4]oxazepin-5(2H)-yl)pyrrolidine-2-carboxamide]	4.1
O=C(NS(=O)(=O)C1CC1)[C@@H]1C[C@H](N2CCCOc3cc(F)ccc32)CN1C(=O)C(c1ccccc1)c1ccccc1 [Compound 38, (2S,4S)—N-(Cyclopropylsulfonyl)-1-(2,2-diphenylacetyl)-4-(8-fluoro-3,4-dihydrobenzo[b][1,4]oxazepin-5(2H)-yl)pyrrolidine-2-carboxamide]	6
O=C(O)[C@@H]1C[C@H](N2CCOc3ccccc3C2)CN1C(=O)C(c1ccccc1)c1ccccc1 [Compound 19, (2S,4S)-4-(2,3-Dihydrobenzo[f][1,4]oxazepin-4(5H)-yl)-1-(2,2-diphenylacetyl)pyrrolidine-2-carboxylic acid]	99

Now from value to compound:

Ki [nM]	Structure (SMILES)
2.7	O=C(O)[C@@H]1C[C@H](N2CCCCc3ccccc32)CN1C(=O)C(c1ccccc1)c1ccccc1 [Compound 1, (2S,4S)-1-(2,2-Diphenylacetyl)-4-(2,3,4,5-tetrahydro-1H-benzo[b]azepin-1-yl)pyrrolidine-2-carboxylic acid]
1.4	O=C(O)[C@@H]1C[C@H](N2CCCOc3ccc(F)cc32)CN1C(=O)C(c1ccccc1)c1ccccc1 [Compound 8, (2S,4S)-1-(2,2-Diphenylacetyl)-4-(7-fluoro-3,4-dihydrobenzo[b][1,4]oxazepin-5(2H)-yl)pyrrolidine-2-carboxylic acid]
3.1	O=C(O)[C@@H]1C[C@H](N2CCCOc3cc(F)ccc32)CN1C(=O)C(c1ccccc1)c1ccccc1 [Compound 9, (2S,4S)-1-(2,2-diphenylacetyl)-4-(8-fluoro-3,4-dihydrobenzo[b][1,4]oxazepin-5(2H)-yl)pyrrolidine-2-carboxylic acid]
15.9	Cc1ccc2c(c1)N([C@@H]1C[C@@H](C(=O)O)N(C(=O)C(c3ccccc3)c3ccccc3)C1)CCCC2 [Compound 23, (2S,4R)-1-(2,2-Diphenylacetyl)-4-(8-methyl-2,3,4,5-tetrahydro-1H-benzo[b]azepin-1-yl)pyrrolidine-2-carboxylic acid]
4.9	O=C(O)[C@@H]1C[C@H](N2CCCCc3sccc32)CN1C(=O)C(c1ccccc1)c1ccccc1 [Compound 11, (2S,4S)-1-(2,2-Diphenylacetyl)-4-(5,6,7,8-tetrahydro-4H-thieno[3,2-b]azepin-4-yl)pyrrolidine-2-carboxylic acid]
34	Cc1ccc2c(c1)N([C@H]1C[C@@H](C(=O)O)N(C(=O)C(c3ccccc3)c3ccccc3)C1)CCCC2 [Compound 3, (2S,4S)-1-(2,2-Diphenylacetyl)-4-(8-methyl-2,3,4,5-tetrahydro-1H-benzo[b]azepin-1-yl)pyrrolidine-2-carboxylic acid]
33	O=C(O)[C@@H]1C[C@@H](N2CCCCc3ccncc32)CN1C(=O)C(c1ccccc1)c1ccccc1 [Compound 28, (2S,4R)-1-(2,2-Diphenylacetyl)-4-(2,3,4,5-tetrahydro-1H-pyrido[3,4-b]azepin-1-yl)pyrrolidine-2-carboxylic acid]
22.8	O=C(O)[C@@H]1C[C@H](N2CCCCc3cc(Cl)ccc32)CN1C(=O)C(c1ccccc1)c1ccccc1 [Compound 6, (2S,4S)-4-(7-Chloro-2,3,4,5-tetrahydro-1H-benzo[b]azepin-1-yl)-1-(2,2-diphenylacetyl)pyrrolidine-2-carboxylic acid]
1.6	O=C(O)[C@@H]1C[C@@H](N2CCCOc3ccc(F)cc32)CN1C(=O)C(c1ccccc1)c1ccccc1 [Compound 25, (2S,4R)-1-(2,2-Diphenylacetyl)-4-(7-fluoro-3,4-dihydrobenzo[b][1,4]oxazepin-5(2H)-yl)pyrrolidine-2-carboxylic acid]
2	O=C(O)[C@@H]1C[C@H](N2CCCOc3ccccc32)CN1C(=O)C(c1ccccc1)c1ccccc1 [Compound 7, (2S,4S)-4-(3,4-dihydrobenzo[b][1,4]oxazepin-5(2H)-yl)-1-(2,2-diphenylacetyl)pyrrolidine-2-carboxylic acid]
